This passage reports pest or weed control, chromatographic logP and inhibition results from US12565489B2, “Heterocyclyl pyrimidines and triazines as novel fungicides” (Bayer Aktiengesellschaft, priority 2020, dated 2026).

One data set has as its system Sphaerotheca fuliginea. In words: In vivo preventive test on Sphaerotheca fuliginea (powdery mildew on cucurbits). As to conditions: Podosphaera fuliginea, 192 h; 500 ppm of active ingredient; preventive spray on young gherkin plants; evaluated 8 days after inoculation; read-out: efficacy. In outline: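 Young gherkin plants were sprayed preventively with compound dissolved in DMSO/acetone/Tween 80 and diluted in water; controls got solvent only. Leaves were inoculated 24 hours later with an aqueous Sphaerotheca fuliginea spore suspension.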

The nature of data set [1]: Measurement of Log P values by HPLC on reversed phase columns (EEC directive 79/831 Annex V.A8). The note with it: LogP. The class given is physicochemical. In outline:
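Reversed-phase HPLC per EEC directive 79/831 Annex V.A8 with UV detection, 10→95% acetonitrile linear gradient; eluent either 0.1% formic acid (acidic), 0.001 molar ammonium acetate (neutral) or 0.1% phosphoric acid (acidic). Calibrated with C3–C16 straight-chain alkan-2-ones by linear interpolation of retention times; multiple values joined by "+".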

Data set [2] concerns Colletotrichum lindemuthianum. In words: In vivo preventive test on Colletotrichum lindemuthianum (leaf spot on bean). As to conditions: 168 h, 500 ppm of active ingredient, preventive spray on young bean plants, evaluated 7 days after inoculation, read-out: efficacy. The protocol:
The active ingredients were made soluble and homogenized in a mixture of Dimethyl sulfoxide/Acetone//Tween®80 and then diluted in water to the desired concentration. The young plants of bean were treated by spraying the active ingredient prepared as described above. Control plants were treated only with an aqueous solution of Acetone/Dimethyl sulfoxide/Tween® 80. After 24 hours, the plants were contaminated by spraying the leaves with an aqueous suspension of Colletotrichum lindemuthianum spores.

The next data set has as its system Pyricularia oryzae. In words: microbe, parasite or virus in culture. It is filed as cell-based. As to conditions: 120 h, read-out: efficacy (inhibition of fungal growth).
The test system of a further data set is Septoria tritici. In words: Septoria tritici in vitro cell test. It is filed as cell-based. The note with it: Zymoseptoria tritici, 168 h; 20 ppm of active ingredient; 7 days incubation; liquid culture, spectrometric measurement of mycelium growth; read-out: efficacy (inhibition of fungal growth). In outline: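 Liquid culture of S. tritici spore suspension in defined mineral/sucrose medium with compounds added from DMSO solutions; measures inhibition of spore germination and mycelial growth. Growth inhibition derived from absorbance relative to untreated control wells.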

The subject of another data set is Alternaria alternata. Put plainly: Alternaria alternata in vitro cell test. As to conditions: 120 h, 20 ppm of active ingredient, 5 days incubation, liquid culture, spectrometric measurement of mycelium growth, read-out: efficacy (inhibition of fungal growth). It is filed as cell-based. In outline:
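Spore suspension of A. alternata in glucose/mycological peptone/yeast extract liquid medium, with compounds added from DMSO solutions at a range of concentrations. After 5 days, mycelium growth was measured spectrometrically. Inhibition was expressed relative to absorbance of fungicide-free control wells.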

Another data set deals with Pyrenophora teres. Put plainly: Pyrenophora teres in vitro cell test. It is filed as cell-based. The note with it: 144 h, 20 ppm of active ingredient, 6 days incubation, liquid culture, spectrometric measurement of mycelium growth, read-out: efficacy (inhibition of fungal growth). In outline: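 Spore suspension grown in liquid glucose–peptone–yeast extract medium with compound added from DMSO solution. Mycelium growth read by absorbance after 6 days. Inhibition is relative to compound-free control wells.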

For orientation: chromatographic logP means a lipophilicity value derived from retention on a column. A high value points to higher lipophilicity. For orientation: inhibition means the percentage by which the read-out fell short of the control. For `Cc1ncc(Oc2cccc(C(F)(F)F)c2)c(C2=NOC[C@@H](Cc3ccc(C(F)F)cc3Cl)N2)n1` (racemic) [Compound I-033], the figures for the pest or weed control at 500 ppm (with Sphaerotheca fuliginea; in data set [2]) were 90 to 100% and 80 to 89%, respectively. The compound further yielded a chromatographic logP in data set [1] of 4.02. The inhibition at 20 ppm in the data set on Pyricularia oryzae lay within 70 to 79%; in the data set on Septoria tritici it was 90 to 100%; with Alternaria alternata, 90 to 100%; in the data set on Pyrenophora teres it was 90 to 100%.

Regarding `C=Cc1cccc(Oc2cnc(C)nc2C2=NOC[C@@H](Cc3ccc(C)cc3C)N2)c1` (racemic) [Compound I-019], the pest or weed control at 500 ppm in the data set on Sphaerotheca fuliginea is 80 to 89%; in data set [2], 90 to 100%. Besides, the chromatographic logP in data set [1] worked out at 4.09. Moreover, the inhibition at 20 ppm in the data set with Pyricularia oryzae, in the data set with Septoria tritici, in the data set with Alternaria alternata and with Pyrenophora teres was 90 to 100% throughout.

For `Cc1cccc(Oc2cnc(C)nc2C2=NOC[C@@H](Cc3ccc(C)cc3C)N2)c1` (racemic) [Compound I-004], the pest or weed control at 500 ppm (in the data set on Sphaerotheca fuliginea; in data set [2]) was 90 to 100% throughout. This compound also came in with a chromatographic logP in data set [1] of 3.95. Besides, the inhibition at 20 ppm in the data set on Pyricularia oryzae, with Septoria tritici, with Alternaria alternata and in the data set with Pyrenophora teres was 90 to 100% in each case.

On to `C#Cc1cccc(Oc2cnc(C)nc2C2=NOC[C@@H](Cc3ccc(C)cc3C)N2)c1` (racemic) [Compound I-025], for which the pest or weed control at 500 ppm (with Sphaerotheca fuliginea; in data set [2]) was 90 to 100% in each case. In data set [1], the chromatographic logP was determined as 3.85. Further, the inhibition at 20 ppm in the data set with Pyricularia oryzae, in the data set with Septoria tritici, in the data set with Alternaria alternata and in the data set on Pyrenophora teres was 90 to 100% in each case.

Regarding `Cc1ccc(C[C@@H]2CON=C(c3nc(C)ncc3Oc3cccc(Cl)c3)N2)c(Cl)c1` (racemic) [Compound I-018], the pest or weed control at 500 ppm (with Sphaerotheca fuliginea; in data set [2]) was 90 to 100% throughout. Moreover, the chromatographic logP in data set [1] is 4.22. In addition, the inhibition at 20 ppm in the data set with Pyricularia oryzae, with Septoria tritici, with Alternaria alternata and with Pyrenophora teres was 90 to 100% each time.

`Cc1ccc(CC2CON=C(c3nc(C4CC4)ncc3Oc3cccc(C(F)(F)F)c3)N2)c(C)c1` (racemic) [Compound I-001, (5RS)-3-{2-cyclopropyl-5-[3-(trifluoro-methyl)phenoxy]pyrimidin-4-yl}-5-(2,4-dimethylbenzyl)-5,6-dihydro-4H-1,2,4-oxadiazine]: the pest or weed control at 500 ppm (in the data set with Sphaerotheca fuliginea; in data set [2]) was 90 to 100% in each case. In data set [1], this compound yielded a chromatographic logP of 5.16. Besides, the inhibition at 20 ppm in the data set on Pyricularia oryzae lay within 80 to 89%; with Septoria tritici it was 90 to 100%; in the data set on Alternaria alternata, 90 to 100%; in the data set on Pyrenophora teres, 90 to 100%.

On to `Cc1ccc(C[C@@H]2CON=C(c3nc(C)ncc3Oc3cccc(Cl)c3F)N2)c(Cl)c1` (racemic) [Compound I-005], for which the pest or weed control at 500 ppm (with Sphaerotheca fuliginea; in data set [2]) was 90 to 100% in each case. In data set [1], this compound yielded a chromatographic logP of 4.19. Also, the inhibition at 20 ppm fell in the range of 80 to 89% in the data set with Pyricularia oryzae, 90 to 100% in the data set on Septoria tritici, 90 to 100% in the data set with Alternaria alternata and 90 to 100% in the data set with Pyrenophora teres.

Consider `C=Cc1ccc(C[C@@H]2CON=C(c3nc(C)ncc3Oc3cccc(C(F)(F)F)c3)N2)c(C)c1` (racemic) [Compound I-006], for which the pest or weed control at 500 ppm (in the data set with Sphaerotheca fuliginea; in data set [2]) was 90 to 100% each time. The chromatographic logP in data set [1] stood at 4.44. For the same compound, the inhibition at 20 ppm with Pyricularia oryzae fell in the range of 70 to 79%; in the data set with Septoria tritici, 90 to 100%; in the data set on Alternaria alternata, 90 to 100%; in the data set on Pyrenophora teres, 90 to 100%.
